Reference: patent US9636409B2, “Enzyme and receptor modulation using covalent conjugates of alpha,alpha-disubstituted glycine esters” (GlaxoSmithKline Intellectual Property Development Limited, priority 2008, dated 2017)

Biological target: T1, recombinant hCE-1 (Homo sapiens, UniProt P23141)
T1 sequence (P23141 18-567): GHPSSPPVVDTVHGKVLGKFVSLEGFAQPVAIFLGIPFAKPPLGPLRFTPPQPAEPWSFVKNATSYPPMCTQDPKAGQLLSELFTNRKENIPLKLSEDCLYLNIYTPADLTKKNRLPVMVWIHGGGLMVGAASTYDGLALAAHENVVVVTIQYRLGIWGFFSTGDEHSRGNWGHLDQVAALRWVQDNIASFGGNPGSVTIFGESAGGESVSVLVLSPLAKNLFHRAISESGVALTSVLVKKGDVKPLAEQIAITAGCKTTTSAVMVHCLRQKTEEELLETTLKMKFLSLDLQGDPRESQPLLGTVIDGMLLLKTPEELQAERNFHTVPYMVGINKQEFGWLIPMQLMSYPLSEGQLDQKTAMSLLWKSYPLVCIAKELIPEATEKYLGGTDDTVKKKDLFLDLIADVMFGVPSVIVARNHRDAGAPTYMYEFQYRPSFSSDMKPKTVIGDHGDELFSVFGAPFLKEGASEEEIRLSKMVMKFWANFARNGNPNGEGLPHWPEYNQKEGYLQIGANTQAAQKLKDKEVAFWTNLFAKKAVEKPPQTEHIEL
Test: HCE-1 carboxylesterase assay
Type: in vitro ADME
Conditions: result in words
Procedure: HCE-1 Carboxylesterase Assay
Hydrolysis of esters to the corresponding carboxylic acids by hCE-1 can be measured using the following procedure. At zero time, 100 μl of recombinant hCE-1 at a concentration of 6 μg/mL in phosphate assay buffer (K2PO4 100 mM, KCl 40 mM, pH 7.4) was added to an equal volume of assay buffer containing 5 μM ester substrate. After thorough mixing, triplicate samples were incubated for 0, 20 or 80 minutes at 37° C. At the appropriate time, hydrolysis was stopped by the addition of 600 μl of acetonitrile. For zero time samples, the acetonitrile was added prior to the enzyme. The samples were analysed for the ester and its corresponding carboxylic acid at room temperature by LCMS (Sciex API 3000, HP1100 binary pump, CTC PAL). Chromatography was based on a […] (75×2.1 mm) column and a mobile phase of 5-95% acetonitrile in water/0.1% formic add. Levels of the acid, the hydrolysis product, after 80 minutes are expressed in ng/mL.

CC(C)(NCCc1ccc(-n2c(N)c(C(=O)c3ccc(F)cc3F)ccc2=O)cc1)C(=O)OC1CCCC1 [Example 1]
hydrolysis by hCE-1: hydrolysed by hCE-1
